Patent US20060171944A1, “N-formyl peptide receptor mediation of platelet chemotaxis toward injured cells and activation of immune response” (priority 2002, published 2006)
Square brackets hold non-standard residues; d marks the D form. Ends that are not written are not given here. * marks the point of attachment. Nle = CCCC[C@H](N)C(=O)O; For = O=C*

How the values were obtained:
[1] = target: T1, N-formyl peptide receptors on human platelets (Homo sapiens, UniProt P21462); experiment: Flow cytometry of fluorescein-conjugated peptide binding to human platelets; settings: 10^−7 M peptide; platelets treated with 0, 0.001, 0.1 or 10 U thrombin
T1 construct: Platelet-rich plasma was prepared from whole blood by differential centrifugation; endogenous in cells
T1 sequence (P21462 1-350): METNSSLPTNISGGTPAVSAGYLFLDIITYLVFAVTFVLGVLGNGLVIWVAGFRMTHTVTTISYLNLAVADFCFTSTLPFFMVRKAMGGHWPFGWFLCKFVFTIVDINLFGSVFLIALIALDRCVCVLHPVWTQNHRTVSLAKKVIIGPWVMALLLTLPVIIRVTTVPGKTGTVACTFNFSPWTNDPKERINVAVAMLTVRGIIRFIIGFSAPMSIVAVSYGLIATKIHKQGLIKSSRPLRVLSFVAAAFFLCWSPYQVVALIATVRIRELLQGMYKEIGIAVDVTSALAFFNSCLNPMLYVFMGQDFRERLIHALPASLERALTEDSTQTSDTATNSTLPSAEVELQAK
Description: (§1) To test whether human platelets express N-formyl peptide receptors, the binding of identical fluorescein-conjugated peptides to human platelets was evaluated by flow cytometry, where one contained a formyl group N-formyl-Nle-Leu-Phe-Nle-Tyr-Lys (fNLFNYK-fl) (SEQ ID NO:1), and the other without a formyl group Nle-Leu-Phe-Nle-Tyr-Lys (NLFNYK-fl) (SEQ ID NO:2). […] However, with permeabilization of non-activated platelets, fluorescein staining of granule-like particles was detected within the interior of platelets (FIG. 1d). […] Differential interference contrast (DIC) imaging (FIG. 1g insert) confirmed the presence of platelets.
Platelet-rich plasma was prepared from whole blood by differential centrifugation at 800×g for 5 min at 22° C. The top two-thirds of the platelet-rich plasma was removed and washed in PBS containing 1% fetal bovine serum. Washed platelets were activated with 0, 0.001, 0.1 or 10 U thrombin (Sigma, St. Louis, Mo.) for 10 min at 37° C. The platelets were then washed and incubated with 10^−7 M fluorescein conjugated N-formyl peptide; fNLFNYK-fl (SEQ ID NO:1; Molecular Probes, Eugene, Oreg.) or 10^−7 M fluorescein conjugated non-N-formylated peptide; NLFNYK-fl (SEQ ID NO:2; New England Peptide, Fitchburg, Mass.) for 30 min at room temperature. […] Samples were analyzed on a Becton Dickinson (Franklin Lakes, N.J.) FASCcalibur/CELLQuest system. […]

[2] = target: T1, N-formyl peptide receptors on human platelets; experiment: Confocal microscopy of fluorescein-conjugated peptide binding to human platelets; settings: 10^−6 M peptide; thrombin-activated platelets
Description: as §1
Platelet-rich plasma was prepared as mentioned above. Washed platelets were activated with either 1 or 10 U thrombin (Sigma) for 10 min at 37° C. The platelets were washed two times and fixed with 4% paraformaldehyde for 20 min at 4° C. The platelets were then washed and permeablized with 100% methanol for 15 min at 4° C. […] The platelets were washed two times, spun onto cover slips, and mounted with ProLong® Antifade Kit (Molecular Probes). Confocal images were collected on a Leica TCS-NT/SP confocal microscope (Leica Microsystems, Exton, Pa.) using a 100-x oil emersion objective NA 1.4, zoom 2. Representative images from three independent experiments are shown (FIG. 2).

human platelets [3] = experiment: Platelet chemotaxis by transwell migration (ChemoTx microplate); type: cell-based; settings: for chemotaxis of thrombin-activated platelets toward peptide: 10^−6 and 10^−7 M peptide, 10 U thrombin, P<0.001
Description: The chemotactic activity of activated and non-activated platelets in response to different concentrations of fMLF by transwell migration (FIG. 4a) was determined. […] Both thrombin-activated and non-activated platelet migration followed a concentration-response curve that was greatest at 10^−6 M fMLF (27.2±12) in the thrombin-activated platelets and 10^−7 M fMLF (11.5±6.5) in the non-activated platelets (FIG. 4a). […] Next the dependence of platelet chemotaxis on the presence of a Formyl group on the peptide was tested. […] Non-activated platelets behaved similarly. Thus, the presence of a Formylgroup was essential for FPR binding, calcium mobilization and platelet chemotaxis.
Platelet migration was assessed using a 96-well ChemoTx® microplate (Neuro Probe, Gaithersburg Md.). For all chemotaxis experiments, different concentrations of stimulants were placed in the bottom wells of the microplate and the filter was positioned (2 μm pore size). The cell suspension was seeded onto the top of the filter (30 μl) and the microplates were incubated for 2 hrs at 37° C. For all chemokinesis experiments, different concentrations of stimulants were placed in the bottom wells of the microplate and the filter was positioned. The cell suspension containing different concentrations of stimulants were placed on the filter (30 μl) in a gradient fashion. After incubation, the lid was removed and the filter was gently wiped with a cell harvester and carefully flushed with media to remove any of the non-migrated cells. The filter was then carefully removed and the migrated cells were counted by light microscopy. Results are expressed as the mean value (±SD) of total migrated cells, in triplicate samples, and are taken from five experiments independent.
Chemotactic responses were distinguished from chemokinetic responses by placing increasing concentrations of fMLF in the upper and lower chambers of the transwell plates (Table 1).
There was no enhanced cell migration when higher concentrations of fMLF were present in the upper wells or with equal concentrations of fMLF in both the upper and lower wells, as would be seen with chemokinesis.
Different concentrations of fMLF were placed in the upper and/or lower wells of the chemotaxis plate; platelets at 10^6 cells/ml were placed on the upper filter. After a 2-hour incubation, the non-migrated cells were removed and the cells that migrated across the filter were counted. The results are expressed as the mean value (±SD) of the migrated cells in at least six separate experiments (n=24). Grey shading indicates wells containing a greater concentration of fMLF in the lower well compared to the upper well. Platelet migration in transwells maintaining a gradient of fMLF between chambers were compared with wells containing equimolar concentrations of fMLF in both chambers (p<0.002, Student's t-test)

human platelets [4] = experiment: Intracellular free calcium in fura-2 loaded platelets; type: cell-based; settings: for calcium signal: thrombin-activated as well as non-activated platelets, 1 U thrombin, 10^−6 M peptide
Description: Washed platelets were activated with either 0 U or 1 U thrombin (Sigma) for 10 min at 37° C. Fura-2 loaded platelets were prepared by incubating the platelets, for 45 min with fura-2 acetoxymethyl ester at 37° C. The dye-loaded platelets were washed and resuspended in calcium-free HBSS standard solution. The cells were then transferred into quartz cuvettes (10^9 cells in 2 ml), which were placed in a model MS-III spectrofluorometer (Photon Technologies, Inc.; South Brunswick, N.J.) and continuously stirred at 37° C. Stimulants were added in a 2 μl volume at indicated time points. The ratios of fluorescence at excitation wavelengths 340 and 380 nm and emission wavelength at 510 nm were calculated using FeliX fluorescence analysis software (Photon Technology Instruments; London, Ontario, Canada). Representative traces from at least six independent experiments are shown.

MEG-01 cells = experiment: RT-PCR of FPR and FPRL-1 in MEG-01 cells; type: cell-based, human; settings: 10^−7 M PMA for 5 days
Description: To further confirm that platelets express human N-formyl peptide receptors (FPR), RT-PCR of RNA harvested from the megakaryocytic cell line MEG-01 was performed. […] Treatment of MEG-01 cells with phorbol 12-myristate 13-acetate (PMA) induced differentiation with production of platelet-like structures^36. RNA harvested from HL60 cells, a promyelocytic cell line that expresses both FPR and FPRL 1, is shown in lane 1 (RT included), lane 2 (RT excluded), and lane 3 (RNA excluded) (FIG. 2a). […] RT-PCR generated bands were confirmed to encode the FPR or FPRL1 by sequence analysis. FPR protein expression in platelets was shown by immunoblotting with FPR specific antibody.
Total RNA was isolated using Ultraspec RNA isolation system (Biotecx Laboratories Inc., Houston Tes.), according to the manufacturer's protocol. To confirm purity of the product RNA, absorption ratios at 260/280 nm were determined to be […] for all samples. The samples were adjusted to 200 ng/μl for reverse transcription and PCR according to absorption at 260 nm. Total RNA was reversed-transcribed using Thermoscript RT (GibcoBRL, Gaithersburg, Md.). Conditions for PCR amplification of the resulting first-strand DNA template involved preheating a mixture of Taq DNA polymerase (5 U/ml) (GibcoBRL), primers, cDNA, and PCR components to 95° C. for 5 min before amplification. […]

Hep-2 cells = experiment: Induction of apoptosis in Hep-2 cells, scored by H-33342/SYTOX staining; type: cell-based; settings: 1 μM for 5 hours
Description: Hep-2-cells were grown in DMEM medium supplemented with 10% FCS. Before each experiment, the cells were washed and the media was replaced with serum-free DMEM. After adaptation to this medium, cells were exposed to repeated freeze/thaw or UV radiation (1000J) in a UV Stratalinker UV oven (Stratagene) to induce necrosis. To induce apoptosis, cells were treated with 1 μM staurosporine (STS) for 5 hours. After the treatments, the cells were placed into a tissue culture incubator overnight. The supernatant was collected and used for experimentation and the cells were stained with a mixture of the membrane permeant dye H-33342 (500 ng/ml) and the membrane impermeant dye SYTOX (500 nM) (Molecular Probes; Eugene, Oreg.). Necrotic (damaged plasma membrane; non-condensed nuclei) and apoptotic (intact plasma membrane; characteristically condensed or fragmented nuclei) cells were scored. Necrotic cells after UV radiation=84%. Apoptotic cells after STS treatment=80%.

For-[Nle]LF[Nle]YK [fNLFNYK-fl]
binding of fluorescein-conjugated peptide to platelets by flow cytometry [1]: increased binding with increased thrombin activation | binding of fluorescein-conjugated peptide to platelets by confocal microscopy [2]: upregulation of external N-formyl peptide binding with platelet activation | chemotaxis of thrombin-activated platelets toward peptide (human platelets [3]): significantly more migration

N-formyl-methionine-leucine-phenalanine [fMLF]
checkerboard analysis: chemotaxis versus chemokinesis (human platelets [3]; fMLF in upper and/or lower wells, 2-hour incubation): directed migration and not chemokinesis | platelet migration, mean value (±SD) of migrated cells (human platelets [3]; non-activated platelets, 10^−7 M fMLF (greatest response)): 11.5±6.5 | platelet migration, mean value (±SD) of migrated cells (human platelets [3]; thrombin-activated platelets, 10^−6 M fMLF (greatest response)): 27.2±12 | calcium signal after pretreatment with thrombin (human platelets [4]; pretreatment with thrombin (1 U), then fMLF stimulation): greater fluorescent signal | calcium signal (human platelets [4]): induced a calcium signal

MLF: the non formyl peptide, MLF
calcium signal (human platelets [4]): failed to elicit a calcium signal

CCCCCCCCCCCCCC(=O)O[C@@H]1[C@@H](C)[C@@]2(O)[C@@H](C=C(CO)C[C@]3(O)C(=O)C(C)=C[C@@H]23)[C@@H]2C(C)(C)[C@]12OC(C)=O [PMA, phorbol 12-myristate 13-acetate]
FPR and FPRL-1 mRNA expression after induced megakaryocyte differentiation (MEG-01 cells): transactivation of the genes encoding both the FPR and FPRL-1

Nle-Leu-Phe-Nle-Tyr-Lys ([Nle]LF[Nle]YK-fluorescein) [NLFNYK-fl, fluorescein conjugated non-N-formylated peptide (New England Peptide)]
binding of fluorescein-conjugated peptide to platelets by flow cytometry [1]: non-specific and did not increase with thrombin activation | binding of fluorescein-conjugated peptide to platelets by confocal microscopy [2]: no binding | chemotaxis of thrombin-activated platelets toward peptide (human platelets [3]): failed to induce significant chemotaxis

thrombin
calcium signal (human platelets [4]): induced a calcium signal

CN[C@@H]1C[C@H]2O[C@@](C)([C@@H]1OC)n1c3ccccc3c3c4c(c5c6ccccc6n2c5c31)C(=O)NC4 [STS, staurosporine]
platelet calcium flux response to thrombin after incubation with STS (human platelets [4]; platelets incubated with STS directly): capable of subsequent calcium flux responses to thrombin | apoptotic cells after treatment (Hep-2 cells): 80%
